In US9168301B2 (NATIONAL TSING HUA UNIVERSITY, priority 2011, dated 2015):
Read-outs that look alike come from different tables or passages of the source.

Assays:
[1] = 4 hours after the injection
Experimental: Before measuring boron concentration of a sample, it needs to undergo microwave digestion first. A sample was initially placed into a Teflon high-pressure digestion vessel, then added with 3 mL of concentrated nitric acid (14N, 65%) and 0.5 mL of hydrogen peroxide (30-35%), and the vessel was sealed before placing the vessel into a microwave digestion system (MLS 1200 Milestone, Italia) for sample decomposition. […] The sample subsequently turned into a clear solution after complete digestion. After diluting the sample with deionized water, an Inductively Coupled Plasma Atomic Emission Spectrometer (ICP-AES, OPTIMA 2000 DV, PerkinElmer Instruments) was used to measure the boron concentration of the sample. For the conditions of the analysis, the temperature of argon plasma was set at 6000-7000 K; the analytical wavelength was set at 249.773 nm, and the liquid uptake rate was set at approximately 2 mL/min; the operating voltage after the formation of plasma was set at 40 V.

[2] = Experimental: The serum biochemical parameters of the rats were monitored by drawing blood samples from the rats' tail veins once before the tumor implantation, and weekly after the tumor implantation. When a rat was sacrificed, a blood sample was also drawn from its heart. Whole blood was collected from a rat and held in a serum separation tube (Vacationer, Franklin Lakes, N.J., USA), then centrifuged for 15 minutes at 3000 rpm, followed by preserving the serum upper clean solution by freezing. Afterwards, the College of Veterinary Medicine of National Chung Hsing University was commissioned with the task of analyzing the serum biochemical parameters of this solution, in which a serum biochemical analyzer (Chiron Diagnostics Corporation, Oberlin, Ohio, USA) was utilized to analyze concentrations of the serum enzymes related to liver and kidney functions.
[3] = liver tumor-bearing SD rats, 25 mg B/kg bw one-shot i.v., n = 12
[4] = system: N1-S1 rat hepatoma liver tumor
Experimental: The implantation of tumor cells: before anesthesia, the SD rats were subcutaneously injected with 0.1 mg/kg bw of Atropine, so as to inhibit the secretion of respiratory tract and salivary gland caused by anesthetics, and prevent bradycardia resulted from the overactivity of vagus nerve. After administering Atropine for 10-15 minutes, the rats were intraperitoneally injected with 20-40 mg/kg bw of Zoletil 50 and 10 mg/kg bw of Xylazine to anesthetize and sedate the animals. After the anesthetia, the subxiphoid incision was done to allow for tumor implantation. A surgical area on the rat was shaved and disinfected with 75% alcohol and iodine, and then a 3-cm incision was made along the midline of thin layer; the muscle layer was elevated to make an opening smaller than the skin layer, and both sides of the rat's abdomen was gently pressed to reveal the liver. A 29 G syringe was loaded with the N1-S1 tumor cell suspension in advance, and then used to slowly inject the suspension into a hepatic lobe of the rat; each of the rats were injected with 6×10^6 cell/0.1 mL of the suspension. After the implantation, the peritoneum was stitched back with an absorbable suture, before using a nylon suture to stitch back the skin layer. The operated rats were then released back into the cage, and their activities and survival were continuously monitored.
A commercial ultrasound scanner (TOSHIBA Xario) was used to scan the liver tumors, and a linear probe (PLT-1204BT) was used because it imparts better resolution; the frequency of the scanning was set at 14 MHz. After the anesthesia, the experimental animals were subjected to B-mode ultrasound imaging, so as to confirm whether the induction and growth of the tumors. […] Sagittal sections and transverse sections were obtained for the experimental animals before the BNCT treatment, and on the 10th, 30th, 60th, and 80th day after the BNCT treatment, in order to estimate the size of the tumors, and also combined Doppler mode with 3D imaging to evaluate the distribution of vasculature in the tumors, as well as the relative position of the tumors in the abdominal cavities.
The experimental animals were divided into three groups; a normal group (which was made up of normal rats), a tumor comparison group (in which the rats received the implantation of tumor cells but not the BNCT treatment), and a BNCT treatment group; the BNCT treatment group was divided into subgroups of rats that received different physical doses of irradiation.
The rats implanted with the N1-S1 tumor cells were subjected to the BNCT treatment on the 17th day after the implantation. […] At 15 minutes before the irradiation, the rats were injected with Atropine and Zoletil to allow for longer anesthesia. Each of the rats were placed on a fixing frame with its tumor-bearing area close to the beam aperture of the Tsing Hua Open-pool Reactor (THOR), and then different duration of neutron irradiation was performed under a specific neutron flux, in order to acquire a specific irradiation dose. After the irradiation, an on-line neutron monitoring system for the THOR was used to confirm the actual irradiation dose.
The tumor was scanned by using a commercial ultrasound scanner (TOSHIBA Xario), and the scanning frequency was set at 14 MHz. […] Ultrasound imaging was used to track growths or disappearances of the tumors, as well as changes in the blood vessels surrounding the tumors within 80 days of the BNCT treatment. The 2D mode of ultrasound imaging was employed to confirm the status of a tumor, and sagittal and transverse sections were obtained to estimate the size of the tumor, and the Doppler mode was combined with 3D imaging to evaluate the distribution of vasculature in the tumor, as well as in surroundings thereof.

[5] = injection dose 60 mg of 10B stable isotope per kilogram of human body weight; cited from earlier work
[6] = system: GS-9L, U-343MGa, HeLa, V79, and B16 cells; conditions: cited from earlier work
[7] = 4 days after the BNCT treatment
[8] = G2, day −1 (before BNCT, baseline)
[9] = G3, day −1 (before BNCT, baseline)

OB(O)O [boric acid]
difference between the boron concentrations in the tumors and the normal liver cells [1]: insignificant | histopathological section of the testis [2, 7]: did not show any abnormalities | change of GPT after the BNCT treatment ([2]; BNCT treatment group): returned to normal | change in BUN (kidney function) ([2]; BNCT treatment group, one month after the BNCT treatment): did not show any meaningful changes | clinical signs after BNCT ([2]; BNCT treatment groups): slight diarrhea and appetite loss | lowest body weight relative to the initial weight ([2]; G1 (11.18 Gy), 8 days after the irradiation): 78% | GOT (AST), serum ([2]; G1 (11.18 Gy), day −1 (before BNCT, baseline), normal 83-118): 250 ± 148 U/L | BUN, serum ([2]; G1, day 11 after BNCT): 15 ± 7 mg/dL | GOT (AST), serum ([2]; G1, day 11 after BNCT): 202 ± 127 U/L | GPT (ALT), serum ([2]; G1, day 11 after BNCT): 39 ± 13 U/L | BUN, serum ([2]; G1, day 30 after BNCT): 14 ± 1 mg/dL | GOT (AST), serum ([2]; G1, day 30 after BNCT): 111 ± 29 U/L | GPT (ALT), serum ([2]; G1, day 30 after BNCT): 50 ± 5 U/L | BUN, serum ([2]; G1, day 80 after BNCT): 17 ± 3 mg/dL | GOT (AST), serum ([2]; G1, day 80 after BNCT): 127 ± 8 U/L | GPT (ALT), serum ([2]; G1, day 80 after BNCT): 54 ± 4 U/L | BUN, serum ([2]; G1, day −1 (before BNCT, baseline), normal 11-17): 16 ± 2 mg/dL | GPT (ALT), serum ([2]; G1, day −1 (before BNCT, baseline), normal 35-47): 54 ± 7 U/L | lowest body weight relative to the initial weight ([2]; G2 (7.97 Gy), 4 days after the irradiation): 89% | GOT (AST), serum ([2]; G2 (7.97 Gy), day −1 (before BNCT, baseline)): 271 ± 39 U/L | BUN, serum ([2]; G2, day 11 after BNCT): 13 ± 2 mg/dL | GOT (AST), serum ([2]; G2, day 11 after BNCT): 204 ± 9 U/L | GPT (ALT), serum ([2]; G2, day 11 after BNCT): 45 ± 15 U/L | BUN, serum ([2]; G2, day 30 after BNCT): 17 ± 5 mg/dL | GOT (AST), serum ([2]; G2, day 30 after BNCT): 144 ± 20 U/L | GPT (ALT), serum ([2]; G2, day 30 after BNCT): 57 ± 3 U/L | BUN, serum ([2]; G2, day 80 after BNCT): 16 ± 2 mg/dL | GOT (AST), serum ([2]; G2, day 80 after BNCT): 116 ± 8 U/L | GPT (ALT), serum ([2]; G2, day 80 after BNCT): 62 ± 13 U/L | BUN, serum [2, 8]: 12 ± 1 mg/dL | GPT (ALT), serum [2, 8]: 56 ± 9 U/L | lowest body weight relative to the initial weight ([2]; G3 (5.61 Gy), 3 days after the irradiation): 92% | GOT (AST), serum ([2]; G3 (5.61 Gy), day −1 (before BNCT, baseline)): 168 ± 19 U/L | BUN, serum ([2]; G3, day 11 after BNCT): 15 ± 3 mg/dL | GOT (AST), serum ([2]; G3, day 11 after BNCT): 180 ± 8 U/L | GPT (ALT), serum ([2]; G3, day 11 after BNCT): 53 ± 4 U/L | BUN, serum ([2]; G3, day 30 after BNCT): 14 ± 3 mg/dL | GOT (AST), serum ([2]; G3, day 30 after BNCT): 153 ± 3 U/L | GPT (ALT), serum ([2]; G3, day 30 after BNCT): 55 ± 6 U/L | BUN, serum ([2]; G3, day 80 after BNCT): 18 ± 3 mg/dL | GOT (AST), serum ([2]; G3, day 80 after BNCT): 133 ± 41 U/L | GPT (ALT), serum ([2]; G3, day 80 after BNCT): 58 ± 12 U/L | BUN, serum [2, 9]: 13 ± 1 mg/dL | GPT (ALT), serum [2, 9]: 50 ± 10 U/L | change of liver enzyme GOT after the BNCT treatment ([2]; all three subgroups of the BNCT treatment group): decreased rapidly | radiation damage in pancreases and spleens, tissue histopathological sections ([2]; liver tumor-bearing rats after BNCT with 10B-boric acid): did not show radiation damage | radiation effect in the testis ([2]; one month after the BNCT irradiation, degree related to irradiation dose): atrophy of seminiferous tubules | testis effect ([2]; only rats that received 11.18 Gy (G1)): clear testicular atrophy | Cmax, highest drug concentration in blood [3]: 104.6 ± 36.23 ppm | reduction of tumor size ([4]; 30th day after BNCT treatment): approximately 90% | histopathology of tumor cells, high magnification [4, 7]: shrunk in size, become hollow, broken down and dead | tumor shrinkage ratio (ultrasound) ([4]; G1 (11.18 Gy), 30 days after BNCT): 0.94 ± 0.01 | tumor shrinkage ratio (ultrasound) ([4]; G1 (11.18 Gy), 60 days after BNCT): 0.94 ± 0.02 | tumor shrinkage ratio (ultrasound) ([4]; G1 (11.18 Gy), 80 days after BNCT): 0.95 ± 0.02 | tumor shrinkage ratio (ultrasound) ([4]; G1 (tumor physical dose 11.18 Gy), boric acid 25 mg 10B/kg i.v., 11 days after BNCT, 0 = initial size, 1 = vanished): 0.64 ± 0.07 | distribution of blood flow surrounding the tumor (Doppler imaging) ([4]; G1, G2 and G3, 8th, 12th, 18th day after BNCT): gradually decreased until it could no longer be detected | tumor shrinkage ratio (ultrasound) ([4]; G2 (7.97 Gy), 30 days after BNCT): 0.89 ± 0.05 | tumor shrinkage ratio (ultrasound) ([4]; G2 (7.97 Gy), 60 days after BNCT): 0.86 ± 0.07 | tumor shrinkage ratio (ultrasound) ([4]; G2 (7.97 Gy), 80 days after BNCT): 0.91 ± 0.05 | tumor shrinkage ratio (ultrasound) ([4]; G2 (tumor physical dose 7.97 Gy), 11 days after BNCT): 0.62 ± 0.1 | tumor shrinkage ratio (ultrasound) ([4]; G3 (5.61 Gy), 30 days after BNCT): 0.77 ± 0.06 | tumor shrinkage ratio (ultrasound) ([4]; G3 (5.61 Gy), 60 days after BNCT): 0.83 ± 0.08 | tumor shrinkage ratio (ultrasound) ([4]; G3 (5.61 Gy), 80 days after BNCT): 0.87 ± 0.04 | tumor shrinkage ratio (ultrasound) ([4]; G3 (tumor physical dose 5.61 Gy), 11 days after BNCT): 0.48 ± 0.42 | liver cancer in the rats after BNCT with 10B-boric acid ([4]; liver tumor-bearing rats): completely disappeared | smallest tumor, size relative to the original size ([4]; one month after the BNCT treatment): 6% | tumor size relative to the original tumor size ([4]; three subgroups G1-G3, one month after the BNCT treatment): less than or equal to 22% | new growth or recurrence of the tumors (ultrasound tracking) ([4]; up to 80 days after the BNCT treatment): did not reveal any new growth or recurrence of the tumors | adverse effect of injected boric acid [5]: no permanent adverse effect | accumulation efficiency in the cells ([6]; previous studies): 1 | ratio of boron concentrations intracellularly and extracellularly ([6]; simple or passive diffusion): 1
